Data set [1] is described as follows: Absorbance spectrum of light absorbing agents. Format: physicochemical. Conditions: light absorbing agent at 1%; for Absorbance spectrum (estimated min-max): estimated width of band covering around 90% of the dye absorbance. The source says:
(§1) Table 1 summarizes the properties of different light absorbing agents tested according to the invention. The Table presents the absorbance peak and the estimated width of the absorbance band, based on the experimental spectra covering around 90% of the dye absorbance. The intrinsic fluorescence of the agents at the emission wavelength of 570 nm (green channel) or at the emission of 666 nm (red channel) is indicated. Intrinsic fluorescence is expressed as the percentage of the fluorescence compared to cy3 fluorescence if present at 1 μM for green channel (=100%) or Oyster645 fluorescence if present at 1 μM for red channel (=100%). Experimental details are given in example 4.

A further data set deals with SuperSalt Taq Polymerase. The experiment in a line: Compatibility of dyes with PCR amplification (no inhibition of the PCR). It is filed as biochemical. Conditions: highest tested concentration which did not inhibit the PCR. As for the experimental part: The Table gives the upper concentration of the agent at which there is no inhibition of the PCR. Two concentrations of Taq polymerase were compared: 5 and 10 units. Experimental details are given in example 3.
PCR was designed for the amplification of the 35 promoter element of DNA sample of a genetically modified organism (GMO).
For each tested light absorbing agent, PCR were performed with different concentrations of agent: 0.005, 0.01, 0.02, 0.05, 0.1, 0.5, 1 and 2% and either 5 U or 10 U of Taq polymerase in PCR mix. Controls tubes were performed without light absorbing agent with 5 U or 10 U of enzyme.
The PCR performed in PCR tubes in a thermocycler (Eppendorf, Hamburg, Germany). Samples were pre incubated for 10 min at 25° C. and then were first denatured at 94° C. for 3 min. Then 40 cycles of amplification were performed consisting of 30 sec at 95° C., 90 sec at 60° C. and 30 sec at 72° C.
After PCR, 1 μL of the PCR product was analyzed by electrophoresis (Agilent Technologies, 2100 Bioanalyzer). The expected size of the amplicon was 79 bp.

The nature of data set [2]: Intrinsic fluorescence of light absorbing agents at the emission wavelengths (green/red channel). It is filed as physicochemical. The conditions noted are these: for Intrinsic fluorescence (emission 666 nm) in % / Intrinsic fluorescence (emission 570 nm) in %: agent at 1%; for Intrinsic fluorescence (emission 666 nm) in %: compared to Oyster645 fluorescence at 1 μM (=100%); for Fluorescence at the emission wavelength of 570 nm (in words) / Intrinsic fluorescence (emission 570 nm) in %: green channel; for Intrinsic fluorescence (emission 570 nm) in %: compared to cy3 fluorescence at 1 μM (=100%).
Excerpt: This concept is exemplified in Table 1. The dye Azure A is a good example. It can be used for the reduction of the fluorescence of a solution at the excitation/emission wavelength of 532/570 (green channel). […] However, the dye is fluorescent at the emission wavelength of 666 nm used in the red channel.
The dye Azure A is thus not capable of reducing the fluorescent of the solution beyond the intrinsic fluorescence of the light absorbing agent at the emission wavelength in the red channel. In presence of this agent, the fluorescence is about 38% (data not shown) the fluorescence value of the solution in the absence of light absorbing agent (=100%).
as §1

“Also recorded” adds a separate entry of the source. Some results are limits rather than exact numbers.

Turning to `O=C1/C(=C2\Nc3ccc(S(=O)(=O)[O-])cc3C2=O)Nc2ccc(S(=O)(=O)[O-])cc21.[Na+].[Na+]` [(C) E132, E132], in data set [1], the Absorbance spectrum peak came to 609 nm and the “Absorbance spectrum (estimated min-max)” value was 525-675. Further, the “Maximum concentration in PCR (%) with 5 U Taq polymerase” value in the data set with SuperSalt Taq Polymerase was 0.05%.
For `CN(C)c1ccc2nc3ccc(N)cc3[s+]c2c1.[Cl-]` [(E) Azure A, Azure A], in data set [1], the Absorbance spectrum peak came out at 636 nm and the “Absorbance spectrum (estimated min-max)” value is 450-700. Further, in data set [2] (red channel), the “Intrinsic fluorescence (emission 666 nm) in %” value was 38% and the “Fluorescence at the emission wavelength of 666 nm (in words)” value (from here on “Fluorescence … of 666 nm (in words)”) is “fluorescent”. Moreover, the “Fluorescence at the emission wavelength of 570 nm (in words)” value (“Fluorescence … of 570 nm (in words)” for short) in data set [2] was “does not fluoresce”. Further, in data set [2] (red channel, solution without light absorbing agent = 100%, data not shown), the “Fluorescence of the solution in presence of the agent” value is on record as “about 38%”.
On to `O=S(=O)([O-])c1cc(S(=O)(=O)[O-])c2c(N=Nc3ccc(S(=O)(=O)[O-])c4ccccc34)c(O)ccc2c1.[Na+].[Na+].[Na+]` [(G) E124, E124], for which, in data set [1], the Absorbance spectrum peak worked out at 508 nm and the “Absorbance spectrum (estimated min-max)” value is reported as <400-585. Further, in data set [2], the “Intrinsic fluorescence (emission 570 nm) in %” value is on record as 18% and the “Fluorescence … of 570 nm (in words)” value was “fluorescent”. In data set [2] (red channel), the “Intrinsic fluorescence (emission 666 nm) in %” value is on record as 18% and the “Fluorescence … of 666 nm (in words)” value was “fluorescent”.
Consider `CC(=O)Nc1ccc(S(=O)(=O)[O-])c2cc(S(=O)(=O)[O-])c(N=Nc3ccc(N=Nc4ccc(S(=O)(=O)[O-])cc4)c4ccc(S(=O)(=O)[O-])cc34)c(O)c12.[Na+].[Na+].[Na+].[Na+]` [(J) Black Brilliant, Black Brilliant], for which, in data set [1], the Absorbance spectrum peak stood at 571 nm and the “Absorbance spectrum (estimated min-max)” value is on record as 475-670. Also, in the data set with SuperSalt Taq Polymerase, the “Maximum concentration in PCR (%) with 5 U Taq polymerase” value came to 0.05% and the “Maximum concentration in PCR (%) with 10 U Taq polymerase” value was determined as 0.1%.
Regarding `CCN(Cc1cccc(S(=O)(=O)[O-])c1)c1ccc(C(=C2C=CC(=[N+](CC)Cc3cccc(S(=O)(=O)[O-])c3)C=C2)c2ccccc2S(=O)(=O)[O-])cc1.[Na+].[Na+]` [(L) E133, E133], in data set [1], the Absorbance spectrum peak is 635 nm and the “Absorbance spectrum (estimated min-max)” value is 525-690. Further, in data set [2] (red channel), the “Intrinsic fluorescence (emission 666 nm) in %” value was 33% and the “Fluorescence … of 666 nm (in words)” value is listed as “shows a basal fluorescence; also recorded: fluorescent”. In the data set with SuperSalt Taq Polymerase, the “Maximum concentration in PCR (%) with 5 U Taq polymerase” value is listed as 0.05% and the “Maximum concentration in PCR (%) with 10 U Taq polymerase” value stood at 0.1%.
As for Black Intense [(A) Black Intense], in data set [1], the Absorbance spectrum peak is 565 nm and the “Absorbance spectrum (estimated min-max)” value is recorded as <400-675. In the data set with SuperSalt Taq Polymerase, the “Maximum concentration in PCR (%) with 5 U Taq polymerase” value was 0.05% and the “Maximum concentration in PCR (%) with 10 U Taq polymerase” value is 0.1%.
With Blue Dextran [(B) Blue Dextran], in the data set on SuperSalt Taq Polymerase, the “Maximum concentration in PCR (%) with 5 U Taq polymerase” value is 0.5% and the “Maximum concentration in PCR (%) with 10 U Taq polymerase” value came to 1%.
For the compound Blue Intense [(K) Blue Intense], in data set [1], the Absorbance spectrum peak is 635 nm and the “Absorbance spectrum (estimated min-max)” value is listed as 525-690. In data set [2] (red channel), the “Intrinsic fluorescence (emission 666 nm) in %” value was 47% and the “Fluorescence … of 666 nm (in words)” value is listed as “fluorescent”. For the same compound, in the data set with SuperSalt Taq Polymerase, the “Maximum concentration in PCR (%) with 5 U Taq polymerase” value worked out at 0.05% and the “Maximum concentration in PCR (%) with 10 U Taq polymerase” value is given as 0.1%.
Brilliant Blue [(F) Brilliant Blue]: in data set [1], the Absorbance spectrum peak stood at 585 nm and the “Absorbance spectrum (estimated min-max)” value was 500-690.
Consider Ferritin [(H) Ferritin], for which, in data set [1], the Absorbance spectrum peak entry is recorded as “(no peak)” and the “Absorbance spectrum (estimated min-max)” value was “below 500”. In data set [2], the “Intrinsic fluorescence (emission 570 nm) in %” value is reported as 40% and the “Fluorescence … of 570 nm (in words)” value is on record as “fluorescent”. In data set [2] (red channel), the “Intrinsic fluorescence (emission 666 nm) in %” value is 15% and the “Fluorescence … of 666 nm (in words)” value was “fluorescent”.
Turning to Melanine [(M) Melanine], the “Absorbance spectrum (estimated min-max)” value in data set [1] was “below 700”.
